Assays:
K562 [1] = assay: Growth inhibition of human K562 cells at 10 uM after 24 hrs by MTT assay; type: functional; settings: K562, 24 h, read-out: GI
MDA-MB-231 = assay: Growth inhibition of human MDA-MB-231 cells at 10 uM after 24 hrs by MTT assay; type: functional; settings: MDA-MB-231, 24 h, read-out: GI
HepG2 [2] = assay: Growth inhibition of human HepG2 cells at 10 uM after 24 hrs by MTT assay; type: functional; settings: HepG2, 24 h, read-out: GI
[3] = Growth inhibition of human HEK293 cells at 10 uM after 24 hrs by MTT assay; type: cell-based; settings: read-out: GI
K562 [4] = assay: Cytotoxicity against human K562 cells after 24 hrs by MTT assay; type: functional, cell-based; settings: K562, 24 h
HepG2 [5] = assay: Cytotoxicity against human HepG2 cells after 24 hrs by MTT assay; type: functional, cell-based; settings: HepG2, 24 h
Saccharomyces cerevisiae = assay: Inhibition of yeast SIRT2 assessed as derepression of Ura3 gene at 50 uM in presence of 5-fluoroorotic acid
HepG2 [6] = assay: Ratio of doxorubicin IC50 to compound IC50 for human HepG2 cells; type: functional

Work on O=c1oc(-c2ccccc2)c(I)c2sc3c(c12)CCCCC3 yielded an inhibition of growth at 10 µM (K562 [1]) of 30.3%, an inhibition of growth at 10 µM (MDA-MB-231) of 40.1% and an inhibition of growth at 10 µM (HepG2 [2]) of 12%. It also gave an inhibition at 24 h, 10 µM [3] of 0.23%.

Work on Cc1ccc(-c2oc(=O)c3c4c(sc3c2I)CCCC4)cc1 yielded an inhibition of growth at 10 µM (K562 [1]) of 64.2%, an inhibition of growth at 10 µM (MDA-MB-231) of 32.5% and an inhibition of growth at 10 µM (HepG2 [2]) of 68.2%. For the same molecule, the inhibition at 24 h, 10 µM [3] was 0%, the IC50 (K562 [4]) was 2330 nM and the IC50 (HepG2 [5]) was 2380 nM. The inhibition (Saccharomyces cerevisiae) was 30% and the “Ratio IC50” value (HepG2 [6]) was >2.

CCCCCC#Cc1c(-c2ccccc2)oc(=O)c2c3c(sc12)CCCCC3 gave an inhibition of growth at 10 µM (K562 [1]) of 12.3%, an inhibition of growth at 10 µM (MDA-MB-231) of 41.9% and an inhibition of growth at 10 µM (HepG2 [2]) of 24.8%. It also gave an inhibition at 24 h, 10 µM [3] of 0.44%.

O=c1oc(-c2ccccc2)c(-c2ccc(O)cc2)c2sc3c(c12)CCCC3 gave an inhibition of growth at 10 µM (K562 [1]) of 9.85%, an inhibition of growth at 10 µM (MDA-MB-231) of 22.9% and an inhibition of growth at 10 µM (HepG2 [2]) of 23%. The inhibition at 24 h, 10 µM [3] was 0.5%.

For Cc1ccc(NC(=O)c2ccc(CN3CCN(C)CC3)cc2)cc1Nc1nccc(-c2cccnc2)n1 [IMATINIB], the IC50 (K562 [4]) was 100 nM.

With CC(C)(O)C#Cc1c(-c2ccccc2)oc(=O)c2c3c(sc12)CCCCC3 the inhibition of growth at 10 µM (K562 [1]) was 9.32%, the inhibition of growth at 10 µM (MDA-MB-231) was 21.6% and the inhibition of growth at 10 µM (HepG2 [2]) was 25%. For the same molecule, the inhibition at 24 h, 10 µM [3] was 4.2%.

CC(C)(C)OC(=O)N1CCc2c(sc3c(I)c(-c4ccccc4)oc(=O)c23)C1 gave an inhibition of growth at 10 µM (K562 [1]) of 8.34%, an inhibition of growth at 10 µM (MDA-MB-231) of 27.5% and an inhibition of growth at 10 µM (HepG2 [2]) of 15.5%. The inhibition at 24 h, 10 µM [3] was 9.03%.

Molecule CCCCC#Cc1c(-c2ccccc2)oc(=O)c2c3c(sc12)CCCCC3 has an inhibition of growth at 10 µM (K562 [1]) of 66.4%, an inhibition of growth at 10 µM (MDA-MB-231) of 25.2% and an inhibition of growth at 10 µM (HepG2 [2]) of 24.1%. The inhibition at 24 h, 10 µM [3] was 3.2%, the IC50 (K562 [4]) was 2280 nM and the inhibition (Saccharomyces cerevisiae) was 30%.

Molecule O=c1oc(-c2ccccc2)c(-c2ccccc2)c2sc3c(c12)CCC3 has an inhibition of growth at 10 µM (K562 [1]) of 26.7%, an inhibition of growth at 10 µM (MDA-MB-231) of 12.4% and an inhibition of growth at 10 µM (HepG2 [2]) of 13.4%. For the same molecule, the inhibition at 24 h, 10 µM [3] was 4%.

CCOC(=O)/C=C/c1c(-c2ccccc2)oc(=O)c2c3c(sc12)CCCCC3 gave an inhibition of growth at 10 µM (K562 [1]) of 27.4%, an inhibition of growth at 10 µM (MDA-MB-231) of 42.6% and an inhibition of growth at 10 µM (HepG2 [2]) of 12%. It also gave an inhibition at 24 h, 10 µM [3] of 1.11%.

Work on O=c1oc(-c2ccccc2)c(-c2ccccc2)c2sc3c(c12)CCCCC3 yielded an inhibition of growth at 10 µM (K562 [1]) of 24%, an inhibition of growth at 10 µM (MDA-MB-231) of 7.42% and an inhibition of growth at 10 µM (HepG2 [2]) of 35.9%. The inhibition at 24 h, 10 µM [3] was 0.01%.

In the case of O=c1oc(-c2ccccc2)c(C#Cc2ccccc2)c2sc3c(c12)CCCCC3, the inhibition of growth at 10 µM (K562 [1]) is reported as 13.9%, the inhibition of growth at 10 µM (MDA-MB-231) is reported as 34.7% and the inhibition of growth at 10 µM (HepG2 [2]) is reported as 20.1%. The inhibition at 24 h, 10 µM [3] was 1.7%.

Work on O=c1oc(-c2ccccc2)c(I)c2sc3c(c12)CCCC3 yielded an inhibition of growth at 10 µM (K562 [1]) of 38.1%, an inhibition of growth at 10 µM (MDA-MB-231) of 22.7% and an inhibition of growth at 10 µM (HepG2 [2]) of 0%. It also gave an inhibition at 24 h, 10 µM [3] of 0.6%.

Source: ChEMBL document CHEMBL2040793, “Thieno[3,2-c]pyran-4-one based novel small molecules: their synthesis, crystal structure analysis and in vitro evaluation as potential anticancer agents” (Bioorg Med Chem Lett, 2012)
